The source of these data is patent EP3305318A1, “[6R]-5,10-METHYLENETETRAHYDROFOLATE IN 5-FLUOROURACIL BASED CHEMOTHERAPY” (Isofol Medical AB, priority 2016, dated 2018).

Each structure is given as a SMILES string. Read-outs that look alike come from different tables or passages of the source.

In one experiment the test system is solid tumours. The conditions noted are these: cited from earlier work.
The subject of another experiment is metastatic breast cancer. The conditions noted are these: 5-FU combined with cyclophosphamide and methotrexate (CMF); cited from earlier work.
The subject of experiment [1] is advanced and recurring head and neck squamous cell cancer. The settings on record: 5-FU in combination therapies with platinum compounds; cited from earlier work.
For another experiment, the system named is colorectal tumors. The settings on record: cited from earlier work.
Another experiment concerns the target T1, TS (Lacticaseibacillus casei, UniProt P00469).
T1 sequence (P00469 1-316): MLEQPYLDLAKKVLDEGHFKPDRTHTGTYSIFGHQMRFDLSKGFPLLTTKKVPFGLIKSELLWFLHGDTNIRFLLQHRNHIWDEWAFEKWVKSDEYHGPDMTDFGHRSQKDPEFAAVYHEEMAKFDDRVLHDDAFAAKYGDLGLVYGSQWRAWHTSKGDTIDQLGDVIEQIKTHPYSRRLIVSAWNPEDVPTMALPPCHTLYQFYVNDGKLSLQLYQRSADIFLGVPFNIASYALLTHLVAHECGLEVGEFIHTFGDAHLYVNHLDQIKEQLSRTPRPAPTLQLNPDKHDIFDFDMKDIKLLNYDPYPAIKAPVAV
The settings on record: cited from earlier work.

Experiment [2] deals with previously untreated metastatic colorectal cancer. The conditions noted are these: Phase II trial; cited from earlier work.
The subject of a further experiment is pancreas cancer. The conditions noted are these: CoFactor combined with 5-FU, phase I/II; cited from earlier work.
Experiment [3] deals with colorectal cancer. The conditions noted are these: Phase IIb study; cited from earlier work.
The test system of experiment [4] is colorectal cancer. In words: 5-FU bolus followed by multiple IV boluses of [6R]-MTHF in colorectal cancer patients (Phase I/II dose cohort trial). In kind it is in vivo, human. The conditions noted are these: initial administration of 5-FU followed by multiple IV boluses of [6R]-MTHF, interval of about 10 min - 4 hours between each bolus. From the text: As used herein, the term ORR shall refer to the Objective Response Rate, ie. the proportion of patients with reduction in tumor burden of a predefined amount. This shall be calculated as follows: ORR = Sum of partial responses plus complete responses as per RECIST 1.1 (a set of published rules that define when tumours in cancer patients progress during treatments, the responses being defined as: • Complete Response: Disappearance of all target lesions. • Partial Response: At least a 30% decrease in the sum of the diameters of target lesions, taking as reference the baseline sum diameters. (Eisenhauer EA, Therasse P, Bogaerts J, Schwartz LH, Sargent D, Ford R, et al. New response evaluation criteria in solid tumours: revised RECIST guideline (version 1.1). Eur J Cancer. 2009 Jan; 45(2):228-47)
The safety and efficacy of [6R]-5,10-methylenetetrahydrofolate is analyzed in an open-label, multiple-site, Phase I/II Dose Cohort Trial in combination with a fixed dose of 5-Fluorouracil (5-FU) alone or together with a fixed dose of Oxaliplatin or Irinotecan in patients with stage IV colorectal cancer. […]
[6R]-5,10-Methylenetetrahydrofolic acid is formulated as a lyophylised powder containing 100 mg per vial (calculated as free acid). […]

On to `O=c1[nH]cc(F)c(=O)[nH]1` [5-FU, 5-fluorouracil], for which the overall response rate in the experiment on solid tumours (5-FU alone) is recorded as 10-15%. Further, in the experiment with metastatic breast cancer, the OS entry was “around 20 months” and the reponse rate result is recorded as “around 20%”. Besides, in [1], the Response rates entry is reported as “around 30%” and the survival time result is reported as “around 6 months”. The response rate result in the experiment with colorectal tumors (5-FU given as a monotherapy) was “around 10%”.
With `Nc1nc2c(c(=O)[nH]1)N1CN(c3ccc(C(=O)N[C@@H](CCC(=O)O)C(=O)O)cc3)C[C@@H]1CN2` [(6S)-isomer], on TS, the “effect on the natural [6R]-isomer as co-substrate for TS” value is reported as “partial competitive inhibitor”.
On to `Nc1nc2c(c(=O)[nH]1)N1CN(c3ccc(C(=O)N[C@@H](CCC(=O)[O-])C(=O)[O-])cc3)CC1CN2.[Ca+2]` (stereo partly shown) [CoFactor®, [6R,S]-5,10-methylene-THF Ca salt], for which, in [2], the response rate is 35%. For the same molecule, the “clinical benefit, defined as stable disease or tumor response” value in the experiment with pancreas cancer is reported as 40 % of patients. Besides, the “efficacy or safety compared with leucovorin study arm” value in the experiment on colorectal cancer [3] is on record as “no significant differences”.
Consider `Nc1nc2c(c(=O)[nH]1)N(C=O)C(CNc1ccc(C(=O)N[C@@H](CCC(=O)O)C(=O)O)cc1)CN2` (stereo partly shown) [LV, Leucovorin], for which the overall response rates entry with solid tumours (LV added to 5-FU) was “over 20%”. The response rate in the experiment on colorectal tumors (Leucovorin (LV) added to 5-FU) is 21%.
For the molecule `Nc1nc2c(c(=O)[nH]1)N1CN(c3ccc(C(=O)N[C@@H](CCC(=O)O)C(=O)O)cc3)C[C@H]1CN2` [[6R]-MTHF, [6R]-5,10-methylenetetrahydrofolate], the “ORRs (objective response rates)” value with colorectal cancer [4] is 50-60%.
